Assay results as given in US20240148835A1, “TREATING DISORDERS ASSOCIATED WITH DYRK1A DYSFUNCTION” (UNIVERSITY OF FLORIDA RESEARCH FOUNDATION, INCORPORATED, priority 2021, published 2024).
Entries after “also recorded” stand apart in the source; their conditions may differ.

Tests used:
[1] = test system: cHet primary cortical neurons; assay: In vitro primary cortical neuron culture, Sholl analysis of Ctip2+ neurons; assay type: cell-based, mouse
Description: Lastly, to test whether (1-3)IGF-1 treatment rescues the decreased complexity of Dyrk1a cHet neurons, we cultured control and cHet primary cortical neurons. Neurons analyzed were restricted to Ctip2+ neurons, as we are focused on the impact of Dyrk1a mutations on the growth and connectivity of layer V pyramidal neurons.
In vitro primary neuronal culture: Brains from P0 mice were removed, and whole cortices were dissected. Individual cortices were placed into 1 mL chilled dissecting media (1× HBSS (14175-095), 30 mM glucose, 60 μM HEPES). After aspiration of the dissecting media, the tissue was enzymatically dissociated with papain (LS003126) that was previously diluted 1:80 in pre-warmed plating media [Neurobasal A (10888-022), 5% FBS (16000044), and 1% penicillin/streptomycin (p/s)/0.25% glutamine (10378-016)] and incubated at 37° C. for 15 min. The papain was removed, and the tissue was pipetted into a single-cell suspension in plating media. The suspensions were filtered using 40 μm nylon cell strainers (Fisher Scientific, #352340), and the filtered suspension was centrifuged at 280 RCF for 5 min. […] Samples of the suspensions were diluted 1:4 in trypan blue, and cells were counted with a manual hemocytometer for determination of sample concentration. […]
All coverslip images were taken at 40× magnification on an Olympus VS-120 epifluorescence microscope and analyzed with ImageJ (NIH). […]

[2] = test system: Dyrk1a cHets; assay: Neonatal (1-3)IGF-1 injection in Dyrk1a cHet pups: cortex mass, layer V soma size, p-S6; assay type: in vivo, mouse
Description: We next aimed to increase mTOR signaling via pharmacological intervention. Because activation of TrkB receptor is decreased in cKOs, treating mice with exogenous BDNF may not be effective. To circumvent this issue while stimulating the same signaling cascades, we injected neonatal pups with (1-3)IGF-1 (GPE), a tripeptide cleaved from the N-terminus of IGF-1 (44). Pups were injected daily from P0 to P7 with 10 μg/g (1-3)IGF-1 or vehicle based on a previously described treatment paradigm (45). Eight hours post-injection on P7, pups were sacrificed, and brains were fixed (FIG. 7F).
(1-3)IGF-1 treatment: (1-3)IGF-1 was acquired from VWR/Bachem (catalog #H-2468.1000) and dissolved in saline with 0.01% BSA fresh every day. Intraperitoneal injections of 10 μg/g (1-3)IGF-1 or vehicle were delivered daily at 8 a.m. starting on P1 and ending on P7. […] Pups were individually removed, injected, and placed back in the home cage with the dam. On P7, 6 hours post-injection, pups were rapidly decapitated for downstream analysis.
Immunohistochemistry: Adult animals were perfused with 4% PFA, and pups underwent rapid decapitation and dissection. After 18 hours post-fixation in 4% PFA, brains were incubated in a 20% sucrose/PBS solution at 4° C. for 2-3 days and embedded in Tissue-Tek OCT compound (Sakura). 40 μm sections were collected on Superfrost/Plus slides and stained. The following primary antibodies were used following antigen retrieval (10 min. in boiling 10× citrate buffer): anti-cleaved caspase 3 (1:1000, Cell Signaling Technology, catalog #9661S), anti-Ctip2 (1:2000, Abcam, catalog #18465), anti-p-S6 Ser235/236 (1:2000, Cell Signaling Technology, catalog #4858S). AlexaFluor-488, -594, and -647-conjugated secondary antibodies (1:2000) were purchased from Invitrogen. DAPI was used for nuclear labeling (Invitrogen, catalog #D3571). Slides were mounted with Vectashield HardSet and images were obtained with an Olympus VS120 microscope and processed using the VS-DESKTOP software (Olympus) or ImageJ (NIH).
For p-S6 intensity, P0, P7, and adult sections were stained with Ctip2 and p-S6 (Ser235/236). […] After image acquisition, Ctip2+ neurons were measured for p-S6 mean gray intensity. 25-30 neurons were measured per section and 2 plane-matched sections were analyzed per animal.
For soma size analysis, sections were stained with NeuroTrace green fluorescent Nissl stain (1:100 dilution, Life Technologies catalog #N-21480) and washed with PBS. After image acquisition, somas in each layer in somatosensory cortex (51) were measured using the ImageJ freehand tool. Layers were denoted based on anatomical boundaries using DAPI staining. 30-35 somas were measured per layer and 2-3 plane-matched sections were analyzed per animal. This was done based on a previously published technique (8).

Substance: (1-3)IGF-1: a tripeptide cleaved from the N-terminus of IGF-1; acquired from VWR/Bachem, CAS No. 32302-76-4 (GPE; Insulin-like growth factor 1; UniProt P05019 49-51, looked up, fragment)
- neuronal complexity (Sholl arborization) of cHet neurons ([1]; 100 ng/mL daily from DIV13 to DIV15, Ctip2+ neurons, DIV15): rescued; also recorded: rescues decreased arborization
- neuronal complexity of control neurons ([1]; 100 ng/mL daily from DIV13 to DIV15, DIV15): did not affect control neurons
- cortex mass of controls ([2]; control pups, 10 μg/g daily to P7): no effect
- p-S6 per layer V neuron in cHets ([2]; neonatal cHets, 10 μg/g daily to P7, Ctip2+ neurons): normal levels; also recorded: rescues the decreased p-S6
- soma size of layer V neurons in cHets ([2]; neonatal cHets, 10 μg/g daily to P7, Nissl stain): comparable to controls; also recorded: rescues the decreased soma size
- cortex mass of cHets ([2]; neonatal cHets, 10 μg/g daily to P7, analysed P7, vs vehicle): rescues the decreased cortex mass
